Common to all, as to assay type: cell-based
For test [1], the system named is BaF3. Put plainly: Cell proliferation (CCK-8, 72 h), parental BaF3. To be noted: Mus musculus, parental BaF3 cells. The source says: (§1) In this example, human gastrointestinal stromal tumor cell line GIST-T1 (expressing wild-type C-KIT gene) (purchased from Cosmo Bio Co., Ltd. (Japan)), human gastrointestinal stromal tumor cell line GIST-T1-T670I (expressing C-KIT-T670I mutant gene) (constructed by our laboratory with CRISPR technology), mouse […] BaF3 (purchased from ATCC) were used. In addition, in this Example, mouse Tel-cKit-BaF3 (stably expressing C-KIT wild-type kinase), mouse Tel-cKit/T670I-BaF3 (stably expressing cKIT T670I mutant kinase), mouse Tel-PDGFRα-BaF3 (stably expressing PDGFRα kinase), mouse Tel-PDGFRβ-BaF3 (stably expressing PDGFRβ kinase), mouse Tel-VEGFR2-BaF3 (stably expressing VEGFR2 kinase), mouse Tel-FLT3-BaF3 (stably expressing FLT3 kinase) were also used. The above cell lines were all constructed by our laboratory. The construction method was as follows: the human C-KIT, C-KIT T670I, PDGFRα, PDGFRβ, VEGFR2, FLT3 kinase region sequences were amplified by PCR respectively and inserted into MSCV-Puro vector (purchased from Clontech) with N-terminal TEL fragment and/or NPM fragment and/or TPR fragment respectively, which was stably transferred into mouse BaF3 cells by retroviral method, and IL-3 growth factor was removed, and finally the cell lines in which protein was transferred depending on C-KIT, C-KIT/T670I, PDGFRα, PDGFRβ, VEGFR2, FLT3 were obtained. The GIST-T1-T670I (expressing C-KIT-T670I mutant gene) cell line was constructed by our laboratory. The construction method was as follows: the sgRNA targeting near the T670 site of the KIT gene was designed by the CRISPR design tool of the Zhang Feng Laboratory of the Massachusetts Institute of Technology (URL: crispr.mit.edu) and cloned into pSpCas9(BB)-2A-Puro vector (Addgene, USA); the obtained vector and a single-stranded oligonucleotide with T670I mutation near the T670 site were co-transfected into the cells, and after antibiotic selection, they were diluted and cultured in a single cell in a 96-well plate; the T670 site of the cells was sequenced and verified by the Sanger sequencing method.

Test [2] relates to TEL-cKIT-BaF3. Description: Cell proliferation (CCK-8, 72 h), TEL-cKIT-BaF3. To be noted: Mus musculus, BaF3 expressing wild-type C-KIT kinase.
Description: as §1

Test [3] has as its system TEL-cKIT/T670I-BaF3. Description: Cell proliferation (CCK-8, 72 h), TEL-cKIT/T670I-BaF3. The following applies: Mus musculus; BaF3 expressing cKIT T670I mutant kinase, 72 h, CCK-8; read-out: GI50 TEL-cKIT/T670I-BaF3.
Description: as §1

The subject of test [4] is TEL-VEGFR2-BaF3. Description: Cell proliferation (CCK-8, 72 h), TEL-VEGFR2-BaF3. The following applies: Mus musculus, BaF3 expressing VEGFR2 kinase.
Description: as §1

The test system of test [5] is TEL-PDGFRα-BaF3. Put plainly: Cell proliferation (CCK-8, 72 h), TEL-PDGFRα-BaF3. To be noted: Mus musculus, BaF3 expressing PDGFRα kinase.
Description: as §1

In test [6] the test system is TEL-PDGFRβ-BaF3. Description: Cell proliferation (CCK-8, 72 h), TEL-PDGFRβ-BaF3. To be noted: Mus musculus, BaF3 expressing PDGFRβ kinase.
Description: as §1

The subject of test [7] is TEL-FLT3-BaF3. Put plainly: Cell proliferation (CCK-8, 72 h), TEL-FLT3-BaF3. To be noted: Mus musculus, BaF3 expressing FLT3 kinase.
Description: as §1

Test [8] deals with GIST-T1. Description: Cell proliferation (CCK-8, 72 h), GIST-T1. To be noted: Homo sapiens, GISTT1, GIST-T1 (wild-type C-KIT gene).
Description: as §1

Test [9] deals with GIST-T1-T670I. Description: Cell proliferation (CCK-8, 72 h), GIST-T1-T670I. The following applies: Homo sapiens, GIST-T1-T670I (C-KIT-T670I mutant, Imatinib-resistant).
Description: as §1

Turning to `Cc1nc(NC(=O)c2ccc(Cl)c(C(F)(F)F)c2)sc1-c1ccc2c(/C=C/c3ccccn3)n[nH]c2c1` [Compound 2, (E)-4-chloro-N-(4-methyl-5-(3-(2-(pyridin-2-yl)vinyl)-1H-indazol-6-yl)thiazol-2-yl)-3-(trifluoromethyl)benzamide], the GI50 in test [1] was greater than 10000 nM; in [2], 135 nM; in [3], 84 nM; in test [4], 40 nM; in test [5] it was 2 nM; in test [6], 13 nM. The same molecule registered a GI50 in test [7] of 4 nM.
In the case of `Cc1nc(NC(=O)Cc2cccc(C(F)(F)F)c2)sc1-c1ccc2c(/C=C/c3ccccn3)n[nH]c2c1` [Compound 3, (E)-N-(4-methyl-5-(3-(2-(pyridin-2-yl)vinyl)-1H-indazol-6-yl)thiazol-2-yl)-2-(3-(trifluoromethyl)phenyl)acetamide], the GI50 was determined as 2310 nM in [1]; 35 nM in test [2]; 28 nM in test [3]; 13 nM in test [4]; 2 nM in [5]; 12 nM in test [6]. Besides, in test [7], the GI50 is 0.1 nM.
For the molecule `Cc1nc(NC(=O)c2ccncc2)sc1-c1ccc2c(/C=C/c3ccccn3)n[nH]c2c1` [Compound 4, (E)-N-(4-methyl-5-(3-(2-(pyridin-2-yl)vinyl)-1H-indazol-6-yl)thiazol-2-yl) isonicotinamide], the GI50 was greater than 10000 nM in [1]; 1550 nM in test [2]; 6 nM in [3]; 7 nM in test [4]; 2 nM in [5]; 1 nM in test [6]. Besides, the GI50 in [7] was found to be 4 nM.
As for `CC(=O)Nc1ncc(-c2ccc3c(/C=C/c4ccccn4)n[nH]c3c2)s1` [Compound 5, (E)-N-(5-(3-(2-(pyridin-2-yl)vinyl)-1H-indazol-6-yl)thiazol-2-yl)acetamide], the GI50 in test [1] turned out to be 2920 nM; in test [2], 425 nM; in test [3] it was 9 nM; in [4] it was 38 nM; in test [5] it was 2 nM; in [6], 11 nM. This molecule registered a GI50 in test [7] of less than 1 nM.
Consider `Cc1nc(NC(=O)c2cccc(C(F)(F)F)c2)sc1-c1ccc2c(/C=C/c3ccccn3)n[nH]c2c1` [Compound 6, (E)-N-(4-methyl-5-(3-(2-(pyridin-2-yl)vinyl)-1H-indazol-6-yl)thiazol-2-yl)-3-(trifluoromethyl)benzamide], for which the GI50 is greater than 10000 nM in test [1]; 24 nM in [2]; 12 nM in [3]; 5 nM in test [4]; 1 nM in test [5]; 3 nM in test [6]. In addition, the GI50 in test [7] came out at 2 nM.
For `Cc1nc(NC(=O)Cc2cccc3ccccc23)sc1-c1ccc2c(/C=C/c3ccccn3)n[nH]c2c1` [Compound 7, (E)-N-(4-methyl-5-(3-(2-(pyridin-2-yl)vinyl)-1H-indazol-6-yl)thiazol-2-yl)-2-(naphthalene-1-yl)acetamide], the GI50 amounted to 3690 nM in test [1]; 191 nM in test [2]; 94 nM in test [3]; 15 nM in test [4]; 2.9 nM in [5]; 3 nM in [7]. Moreover, the GI50 in test [8] came out at 32 nM; in test [9], 65 nM.
Turning to `Cc1nc(NC(=O)CC2CCNCC2)sc1-c1ccc2c(/C=C/c3ccccn3)n[nH]c2c1` [Compound 11, (E)-N-(4-methyl-5-(3-(2-(pyridin-2-yl)vinyl)-1H-indazol-6-yl)thiazol-2-yl)-2-(piperidin-4-yl)acetamide], the GI50 in test [1] was 980 nM; in test [2], 480 nM; in [3] it was 38 nM; in test [4], 350 nM; in [5], 1.3 nM; in test [6], 3.9 nM. For the same molecule, the GI50 in test [7] was determined as 48 nM.
As to `Cc1nc(NC(=O)C2CCNCC2)sc1-c1ccc2c(/C=C/c3ccccn3)n[nH]c2c1` [Compound 14, (E)-N-(4-methyl-5-(3-(2-(pyridin-2-yl)vinyl)-1H-indazol-6-yl)thiazol-2-yl) piperidin-4-carboxamide], the GI50 was 3100 nM in test [1]; 137 nM in [2]; 85 nM in [3]; 42 nM in test [4]; 7.4 nM in test [5]; 18 nM in [6]. In test [7], this molecule displayed a GI50 of 1.6 nM.
For the molecule `Cc1nc(NC(=O)Nc2cccc(C(F)(F)F)c2)sc1-c1ccc2c(/C=C/c3ccccn3)n[nH]c2c1` [Compound 29, (E)-1-(4-methyl-5-(3-(2-(pyridin-2-yl)vinyl)-1H-indazol-6-yl)thiazol-2-yl)-3-(3-(trifluoromethyl)phenyl)urea], the GI50 in [1] was 105 nM; in [2], 25 nM; in test [3], 38 nM; in test [4], 4 nM; in test [5] it was less than 1 nM; in test [6], less than 1 nM. In test [7], this molecule returned a GI50 of 2 nM.
Turning to `CC(=O)Nc1nc(C)c(-c2ccc3c(/C=C/c4ccccn4)n[nH]c3c2)s1` [Compound 30, (E)-N-(4-methyl-5-(3-(2-(pyridin-2-yl)vinyl)-1H-indazol-6-yl)thiazol-2-yl) acetamide], the GI50 in test [1] was determined as 1460 nM; in test [2], 47 nM; in test [3] it was 8 nM; in test [4] it was 12 nM; in [5] it was 1 nM; in [6], 1 nM. Also, in [7], the GI50 stood at 0.3 nM.
For the molecule `Cc1ccc(NC(=O)c2ccc(CN3CCN(C)CC3)cc2)cc1Nc1nccc(-c2cccnc2)n1` [Imaitnib, Imatinib, reference compound], the figures for the GI50 in [8] and in [9] were 10 nM and greater than 10000 nM, respectively.

These data come from patent publication US12162876B2, “Indazole kinase inhibitor and use thereof” (Tarapeutics Science Inc., priority 2018, dated 2024).
